Experimental data reported in article PMC7976169 (Antiviral research, 2020).
pEC50: −log10 of the molar value. Like-named read-outs stand apart in the source and are kept apart here.

Tests used:
[1] = test system: HSV; settings: cited from earlier work
[2] = test system: Uninfected Vero cells; assay type: in vitro ADME
[3] = test system: HCMV Towne-infected HFF cells; experiment: Biosynthesis of nucleoside analog triphosphate in HCMV-infected cells; assay type: in vitro ADME; settings: for Other metabolites detected: five times the EC50
[4] = in vivo; cited from earlier work
[5] = test system: Uninfected HFF cells; experiment: Triphosphate formation in uninfected HFF cells; assay type: in vitro ADME
[6] = test system: HCMV; settings: cited from earlier work
[7] = test system: HSV-1 KOS1.1-infected Vero cells; experiment: Biosynthesis of nucleoside analog triphosphate in HSV-infected cells; assay type: in vitro ADME
[8] = read-out: EC50 against HCMV, ref Zhou et al., 2004
[9] = read-out: EC50 vs HCMV, ref Qiu et al., 1998

## Nc1nc2c(ncn2COCCO)c(=O)[nH]1 [ACV, acyclovir]
[1]; reported EC50 of ACV, ref Furman et al., 1981
  pEC50: 6.00
[2]
  Levels of phosphates in uninfected Vero cells: no measurable level

## Nc1nc(O)c2ncn(COC(CO)CO)c2n1 [GCV, ganciclovir]
[3]
  Other metabolites detected: no other metabolites
[4]
  Incidence of neutropenia: ~ 30 % of patients
[5]
  Levels of phosphates in uninfected HFF cells: no measurable levels
[6]; [8]
  pEC50: 5.39
[6]; [9]
  pEC50: 5.13

## O=C(O)P(=O)(O)O [foscarnet]
[4]
  Incidence rate of nephrotoxicity: ~ 50%

## CCCCOc1nc(N)nc2c1ncn2C=C1CC1(CO)CO [MBX-2168]
[3]
  Other metabolites detected: no other metabolites
[1]; read-out: EC50 HSV, ref Prichard et al., 2013
  pEC50: 5.17
[7]; HSV-infected Vero cells, five times the EC50
  Other metabolites detected: no other metabolites
[6]; read-out: EC50 HCMV, ref Prichard et al., 2013
  pEC50: 6.10

## Nc1ccn(C[C@@H](CO)OCP(=O)(O)O)c(=O)n1 [cidofovir]
[4]
  Incidence rate of nephrotoxicity: ~ 50%

## Nc1nc2c(ncn2/C=C2/CC2(CO)CO)c(=O)[nH]1 [FCV, Filociclovir]
[6]; [8]
  pEC50: 6.34
[6]; ref Zhou et al., 2004
  Fold greater efficacy against HCMV compared to GCV: 10 fold

## Nc1nc2c(ncn2COCCOP(=O)(O)OP(=O)(O)OP(=O)(O)O)c(=O)[nH]1 [ACV-TP]
[7]; HSV-infected cells, 5.0 μM ACV, 8 hours
  Triphosphate level at 8 hours: 3.8 ± 0.3 pmol/10^6 cells
[7]; HSV-infected cells, delay due to lack of HSV-TK early after infection
  Delay in production of triphosphate: ~2 h

## Nc1nc(O)c2ncn(COC(CO)COP(=O)(O)OP(=O)(O)OP(=O)(O)O)c2n1 (stereo not drawn) [GCV-TP]
[3]; […], maximum at 120 hours
  Peak Triphosphate Level: 42.6 ± 3.7 pmol/10^6 cells

## Nc1nc2c(ncn2/C=C2/CC2CO)c(=O)[nH]1 (stereo not drawn) [synguanol]
[3]
  Other metabolites detected: no other metabolites
[5]
  Levels of phosphates in uninfected HFF cells: no measurable levels
[6]; [9]
  pEC50: 5.68
